The values that follow come from PubChem BioAssay AID449764 (Southern Research Specialized Biocontainment Screening …, 2010).

Bounds are passed on as bounds.

For this test, the system named is Mycobacterium tuberculosis H37Rv growth inhibition, no glycerol. The experiment in a line: Confirmatory growth inhibition assay, Mycobacterium tuberculosis H37Rv, absence of glycerol (AID 449764).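 As to all read-outs here: growth read after 7 days of incubation.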 The note with it: for IC90: measured here: IC90 growth inhibition.

Broadly, the IC50 is the concentration at which inhibition is half-maximal. The IC90 is the point of the concentration-response curve where the effect stands at 90%. Lower therefore signals an effect from little substance. For the compound `CCc1cc(/C(Cc2ccccn2)=N\Nc2ccccc2)c(O)cc1O`, the IC50 is 85.7 µM and the IC90 stood at 94.6 µM.
Consider `CC(C)Cc1ccc(C(C)C(N)=NCCc2ccccc2)cc1` (configuration not stated), for which the IC50 was 24.1 µM and the IC90 stood at 27.8 µM.
Turning to `O=C1NCC(O)=C1C=Nc1ccccc1O`, the IC50 is 5.54 µM and the IC90 was determined as 7.6 µM.
For `CCc1cc(C(=O)Nc2nc(-c3ccccn3)cs2)sc1C`, the IC50 is 4.53 µM and the IC90 is 8.86 µM.
`c1ccc(-c2nc3nonc3nc2-c2ccccc2)cc1`: the IC50 is 28.9 µM and the IC90 was found to be 39.4 µM.
For `CC(C)c1ccc2c(c1)CCC1C(C)(CN)CCCC21C` (configuration not stated) the same measures were 17.7 µM and 26.7 µM.
For `Cc1ccc(N2CCN(C(=O)c3cn(CC4CCCCC4)nn3)C(C)C2)cc1` (configuration not stated) the same measures were 39.5 µM and 50.3 µM.
As for `CN1CCN(C(=O)/C=C/c2cn(-c3ccccc3)nc2-c2ccc3c(c2)OCCO3)CC1`, the IC90 was greater than 100 µM.
Turning to `O=S(=O)(c1ccc(Cl)cc1)c1snnc1-c1ccccc1`, the IC50 was 18.8 µM and the IC90 came to 29.9 µM.
In the case of `Cc1cc(C)n(-c2nc(NCCN(C)C)c3c4c(sc3n2)CCCC4)n1`, the IC50 is 15.6 µM and the IC90 came out at 21.4 µM.
On to `Cc1ccc(C(=O)N/C(=C/c2ccc(-c3cc(C(F)(F)F)ccc3Cl)o2)C(=O)NCc2cccnc2)cc1`, for which the IC50 is 73.6 µM and the IC90 is greater than 100 µM.
Take `CC(c1nc2ccccc2c(=O)[nH]1)N(C)CCOc1ccc(Cl)cc1` (configuration not stated): the IC50 is 40.7 µM and the IC90 came to 55.5 µM.
Take `COC(=O)C(C)Oc1ccc(Cc2ncc(C(F)(F)F)cc2Cl)cc1` (configuration not stated): the IC50 was 3.43 µM and the IC90 is 5.97 µM.
On to `CC(OC(=O)COc1ccc(Nc2ccccc2)cc1)C(=O)N(C)c1ccccc1` (configuration not stated), for which the IC50 is 2.16 µM and the IC90 amounted to 10.9 µM.
As to `Oc1ccccc1N=Cc1ccc[nH]1`, the IC50 is 4.6 µM and the IC90 is 6.04 µM.
Regarding `CCN(CC)Cc1nc2c(c(=O)[nH]1)C(CC)(CC)Cc1ccccc1-2`, the IC50 was 12.7 µM and the IC90 was found to be 21.1 µM.
For `Cc1nn(-c2nc3ccccc3[nH]2)c(N)c1-c1ccc(Cl)cc1`, the IC50 is 3.72 µM and the IC90 is greater than 100 µM.
In the same order, the values of `CCN(CC)S(=O)(=O)c1ccc2[nH]cc(C(=O)NCCC3=CCCCC3)c(=O)c2c1` are 91.7 µM and greater than 100 µM.
`CCCCCc1ccc(-c2cn(Cc3cccc(OC)c3)nn2)cc1`: the IC50 was 38.9 µM and the IC90 is greater than 100 µM.
In the case of `Cc1cc(C(=O)COC(=O)C2=COCCO2)c(C)n1-c1cccc(F)c1`, the IC50 is 9.64 µM and the IC90 is greater than 100 µM.
For `COc1ccccc1-n1cc2c([N+](=O)[O-])cc([N+](=O)[O-])cc2n1` the same measures were 1.98 µM and 5.89 µM.
As to `Cc1ccsc1/C=C1\SC(N2CCOCC2)=NC1=O`, the IC50 was 23.4 µM and the IC90 was 27 µM.
`Nc1ccc(Oc2ccc(F)cc2)nc1`: the IC50 is 70.1 µM and the IC90 amounted to 85.7 µM.
`CCSc1ncc(/C=N/Nc2ccccc2)n1C`: the IC50 is 82.6 µM and the IC90 is greater than 100 µM.
For the compound `CCCCS/C(N)=N/N=C/c1cc(C)ccc1O`, the IC50 was 22.7 µM and the IC90 stood at 34.1 µM.
With `C/C(=N\NC(N)=S)C1C2C3CC4C5CC(C42)C1C53` (configuration not stated), the IC50 is 22.1 µM and the IC90 stood at 31.8 µM.
On to `O=C(c1ccc(-c2ccccc2)c(F)c1)C1CCCN(C(=O)c2cncs2)C1` (configuration not stated), for which the IC50 was 32.5 µM and the IC90 came out at 49.4 µM.
Take `Oc1ccccc1-c1nnc(COc2ccccc2)o1`: the IC50 was 19 µM and the IC90 stood at 28.9 µM.
For `Cc1ccc(CNc2ccc3c(c2)ncn3C(C)(C)C)cc1`, the half-inhibitory concentration (IC50) is 19.9 µM and the IC90 turned out to be 28.8 µM.
Turning to `O=C(c1ccc(-c2cccc(C(F)(F)F)c2)o1)N1CCN(c2ccccc2O)CC1`, the IC50 is 24 µM and the IC90 is 27.5 µM.
For `COc1ccc(-c2c(C#Cc3ccsc3)c3ccccc3n2C)cc1` the same measures were 33.8 µM and 49.6 µM.
In the same order, the values of `O=C(OCC(=O)N1CCCc2ccccc21)c1ccc(S(=O)(=O)C(F)F)cc1` are 37.9 µM and 49.2 µM.
In the same order, the values of `O=C(CCl)c1ccc2c(c1)CCN2C(=O)C1CCCCC1` are 41.5 µM and greater than 100 µM.
Consider `OC(COC(c1ccc(Cl)cc1)c1ccc(Cl)cc1)CN1CCc2ccccc2C1` (configuration not stated), for which the IC50 was 20.7 µM and the IC90 came to 27.6 µM.
Turning to `COCCn1nnnc1C(c1cc2cc(OC)ccc2[nH]c1=O)N1CCC(Cc2ccccc2)CC1` (configuration not stated), the IC50 was 89.8 µM and the IC90 was greater than 100 µM.
For the compound `CCCOc1ccc2oc(=O)c3c(c2c1)CCCN3C(=O)CN1CCN(c2ncccn2)CC1`, the IC50 is 73.1 µM and the IC90 was greater than 100 µM.
In the same order, the values of `C/C(=N\Nc1nc2c(s1)CCCC2)c1ccccc1` are 30.6 µM and 47.2 µM.
In the same order, the values of `CN1C(=O)/C(=C/c2ccccc2Cl)Sc2ccc(C(=O)NCc3cccnc3)cc21` are 50.6 µM and 89.8 µM.
For `CN(/N=C/c1cc(Br)cc(Br)c1O)c1cccc(C(F)(F)F)n1`, the IC50 was 7.9 µM and the IC90 was determined as 11.2 µM.
As to `CCCc1cc(C(N)=S)ccn1`, the IC50 was 17.1 µM and the IC90 was greater than 100 µM.
In the case of `CN(C(=O)COC(=O)c1ccc([N+](=O)[O-])cc1Cl)C1CCCCC1`, the IC50 was 19.2 µM and the IC90 is greater than 100 µM.
`CCOc1ccc(NC(=O)CCc2nnc3ccc(N4CCC(C)CC4)nn23)cc1`: the IC50 is 12.5 µM and the IC90 is 14.7 µM.
For `COC(=O)C(C)Oc1ccc(-c2nccc(-c3ccccn3)n2)cc1` (configuration not stated) the same measures were 3.91 µM and 6.95 µM.
For `CNC(=S)/N=C/NOCc1c(Cl)cccc1Cl` the same measures were 2.96 µM and 3.35 µM.
As for `CSC1=NC(C)(C)C=C(/C=C/c2ccc(Cl)cc2)N1`, the IC50 is 38.3 µM and the IC90 came out at 56.7 µM.
Take `Brc1ccc2c(c1)C(OC1CN3CCC1CC3)c1ccccc1CS2` (configuration not stated): the IC50 is 26.3 µM and the IC90 was 36.4 µM.
For the compound `O=C(/C=C/c1ccc(O)c([N+](=O)[O-])c1)c1ccc2ccccc2c1`, the IC50 was 24 µM and the IC90 is greater than 100 µM.
In the case of `CC(C)(C)c1ccc(C(=O)N2CCN(CCNC(=O)C(=O)NCc3ccc(Cl)cc3)CC2)cc1`, the IC50 was 24.7 µM and the IC90 is 46.7 µM.
In the case of `COc1ccccc1N(C)S(=O)(=O)c1ccc(C(=O)Nc2ccc3nc(C)sc3c2)cc1`, the IC50 was 51.1 µM and the IC90 came out at 99.8 µM.
On to `CC(C)Nc1nc(NC(C)C)nc(N(C)N)n1`, for which the IC50 was 32.2 µM and the IC90 was 47.9 µM.
The compound `CC(C)OC(=O)c1ccc(NC(=S)NC(=O)c2cncc(Br)c2)cc1` registered an IC90 greater than 100 µM.
Take `CCOC(=O)C1CCCN(c2ncnc3c2cnn3-c2ccc(OC)cc2)C1` (configuration not stated): the IC50 is 5.82 µM and the 90% effect concentration (IC90) was 10.3 µM.
In the same order, the values of `CCOC(=O)c1ccc(Oc2nc(NC(C)(C)C)nc(N(C)C)n2)cc1` are 58.1 µM and greater than 100 µM.
`Cc1ccc(C(=O)/C=C/C(=O)c2ccc(C)cc2)cc1`: the IC50 was 4.34 µM and the IC90 was 5.87 µM.
As to `Clc1ccc(SCc2cc(N3CCOCC3)nc(-c3ccccn3)n2)cc1`, the IC50 is 6.68 µM and the IC90 was 11.6 µM.
For the compound `O=C(CCl)Nc1sccc1C(=O)c1ccccc1`, the IC50 was 0.45 µM and the IC90 was determined as 12.6 µM.
For the compound `CC(C)(C)NC(=O)COC(=O)c1cc(Br)ccc1Cl`, the IC50 is 24.3 µM and the IC90 turned out to be 45.4 µM.
As for `CCCCOC(=O)CCN1C(=O)/C(=C2\SC(=S)N(CCC(=O)OCCCC)C2=O)SC1=S`, the IC50 was 5.44 µM and the IC90 turned out to be 10.6 µM.
`CN(C)c1ccc(O)c2c1CC1CC3[C@@H](N(C)C)C(=O)C(C(N)=O)C(=O)[C@]3(O)C(=O)C1C2=O` (some centres not stated): the IC50 was 1.93 µM and the IC90 was 3.99 µM.
For the compound `CC1Cc2cc(-c3csc(NC(=O)Cc4cccs4)n3)ccc2N1S(C)(=O)=O` (configuration not stated), the IC50 is 36.2 µM and the IC90 is greater than 100 µM.
In the case of `CC(C)(C)c1ccc(Cn2nnc3c(=O)[nH]c(C4CCCN(C(=O)Cc5cccs5)C4)nc32)cc1` (configuration not stated), the IC50 was 36 µM and the IC90 is 46.6 µM.
On to `O=C(/C=C/Sc1ncn[nH]1)c1ccc(Cl)cc1`, for which the IC50 is 34.7 µM and the IC90 was 55.1 µM.
For the compound `Cc1ccn2nc(S(=O)(=O)Nc3c(F)cccc3F)nc2n1`, the IC50 is 9.62 µM and the IC90 was 11.5 µM.
For the compound `CN(C)c1ccc(CNC2C3CC4CC(C3)CC2C4)cc1` (configuration not stated), the IC50 is 12.2 µM and the IC90 turned out to be 17 µM.
Regarding `CCc1ccc(N=C2NC(=O)/C(=C/c3cc(OC)c(O)c(OC)c3)S2)cc1`, the IC50 is 41.1 µM and the IC90 is greater than 100 µM.
With `CCCCOc1ccc(Br)cc1/C(C)=N/NC1=NCCN1`, the IC50 is 22.4 µM and the IC90 is 31.8 µM.
For `Cc1ccc(C(C)C)c(OCC(=O)OCc2c(C)noc2C)c1`, the IC50 is 4.65 µM and the IC90 turned out to be 6.88 µM.
In the same order, the values of `COc1ccccc1C(=O)NC(=S)/C=C1/N(C)c2ccccc2C1(C)C` are 30.8 µM and 46.8 µM.
For `Cc1nonc1OCCNCCNc1ccc([N+](=O)[O-])c2cccnc12` the same measures were 17.7 µM and 31.4 µM.
Turning to `CCc1cc(C(=O)NNC(=O)CCl)sc1C`, the IC50 is 5.03 µM and the IC90 stood at 7.55 µM.
Take `CSc1cccc(NC(=O)CCS(=O)(=O)c2cccc3nonc23)c1`: the IC50 is 5.57 µM and the IC90 worked out at 9.26 µM.
In turn, `Cn1cccc1/C=C1/C(=O)NC(=S)N(Cc2ccc(F)cc2)C1=O` gave an IC90 greater than 100 µM.
Take `Nc1nnnn1/N=C/C(Br)=C/c1ccccc1`: the IC50 was 5.6 µM and the IC90 worked out at 10.9 µM.
`CC(C)=N/N=C1/NC(=O)C(Cc2ccccc2)S1` (configuration not stated): the IC50 is 76.5 µM and the IC90 stood at 97.2 µM.
For `CCOC(=O)CCCNC(=O)COC(=O)c1cc(Br)c(Br)s1`, the IC50 is 18.5 µM and the IC90 was greater than 100 µM.
